These results are taken from ChEMBL document CHEMBL2396648, “Potent suppression of c-di-GMP synthesis via I-site allosteric inhibition of diguanylate cyclases with 2'-F-c-di-GMP” (Bioorg Med Chem, 2013).

Usually IC50 stands for the concentration needed to halve the response being measured. As usually defined, the Ki is the equilibrium dissociation constant of an inhibitor or competing ligand from its target.

Assay [1] can be described thus: Competitive binding affinity to Pseudomonas aeruginosa WspR after 5 mins in presence of [32P]-c-di-GMP.
Assay [2] is described as follows: Competitive binding affinity to Pseudomonas aeruginosa Alg44 PilZ domain after 5 mins in presence of [32P]-c-di-GMP.
In assay [3] the target is T1, Cyclic di-GMP phosphodiesterase RocR (Pseudomonas aeruginosa (strain ATCC 15692 / PAO1 / 1C / PRS 101 / LMG12228), UniProt Q9HX69).
T1 sequence (Q9HX69 whole entry): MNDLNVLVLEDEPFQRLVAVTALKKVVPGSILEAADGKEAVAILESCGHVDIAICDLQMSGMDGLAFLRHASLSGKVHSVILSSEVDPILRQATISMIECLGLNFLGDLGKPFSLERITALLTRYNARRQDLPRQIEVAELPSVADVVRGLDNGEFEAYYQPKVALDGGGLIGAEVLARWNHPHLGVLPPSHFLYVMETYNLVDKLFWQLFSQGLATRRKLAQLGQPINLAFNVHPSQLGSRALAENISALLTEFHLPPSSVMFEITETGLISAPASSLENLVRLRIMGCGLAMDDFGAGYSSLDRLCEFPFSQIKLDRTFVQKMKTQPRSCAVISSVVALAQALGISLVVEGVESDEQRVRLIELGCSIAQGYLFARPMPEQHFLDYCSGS
Briefly: Competitive binding affinity to Pseudomonas aeruginosa PAO1 His6-tagged RocR expressed in Escherichia coli BL21 (DE3) after 5 mins in presence of [32P]-c-di-GMP.

Assay [4] deals with Pseudomonas aeruginosa PA14. Briefly: Inhibition of Pseudomonas aeruginosa PA14 diguanylate cyclase PA1107 using [32P]-GTP as substrate at 100 uM after 120 mins by thin layer chromatographic analysis.
The subject of assay [5] is Pseudomonas aeruginosa PA14. Put plainly: Inhibition of Pseudomonas aeruginosa PA14 PvrR using [32P]-GTP as substrate at 100 uM after 120 mins by thin layer chromatographic analysis.
Assay [6] is described as follows: Allosteric inhibition of Pseudomonas aeruginosa WspR using [32P]-GTP as substrate measured for 1 hr by thin layer chromatographic analysis.
The test system of the next assay is Pseudomonas aeruginosa. Briefly: Inhibition of Pseudomonas aeruginosa WspR using [32P]-GTP as substrate at 100 uM after 120 mins by thin layer chromatographic analysis.
The target in assay [7] is T2, Cyclic di-GMP phosphodiesterase RocR (Pseudomonas aeruginosa (strain ATCC 15692 / PAO1 / 1C / PRS 101 / LMG12228)) (UniProt Q9HX69).
T2 sequence (whole entry): T1 sequence (Q9HX69 whole entry)
Briefly: Inhibition of Pseudomonas aeruginosa PAO1 His6-tagged RocR expressed in Escherichia coli BL21 (DE3) using [32P]-GTP as substrate at 100 uM after 120 mins by thin layer chromatographic analysis.

Each structure is given as a SMILES string. Activity calls are given as the source filed them. The rule behind the calls is not given here.

For the compound `CO[C@@H]1[C@@H]2OP(=O)(O)OC[C@H]3O[C@@H](n4cnc5c(=O)[nH]c(N)nc54)[C@H](OC)[C@@H]3OP(=O)(O)OC[C@H]2O[C@H]1n1cnc2c(=O)[nH]c(N)nc21`, the results for the IC50 in assay [1], in assay [2] and in assay [3] were > 100 µM, > 100 µM and 6.41 µM, respectively.
As for `Nc1nc2c(ncn2[C@@H]2O[C@@H]3COP(=O)(O)O[C@H]4[C@@H](F)[C@H](n5cnc6c(=O)[nH]c(N)nc65)O[C@@H]4COP(=O)(O)O[C@H]3[C@H]2F)c(=O)[nH]1`, the inhibition entry (in assay [4]; in the assay with Pseudomonas aeruginosa; in assay [7]) was “Active” each time. The inhibition result in assay [5] is “inactive”. This compound yielded a Ki in assay [6] of 12.6 µM. The results for the IC50 in assay [1], in assay [2] and in assay [3] were 11 µM, 3.12 µM and 0.72 µM, respectively.
Consider `Nc1nc2c(ncn2[C@@H]2O[C@@H]3CO[P@](=O)(O)O[C@H]4[C@@H](O)[C@H](n5cnc6c(=O)[nH]c(N)nc65)O[C@@H]4CO[P@](=O)(O)O[C@H]3[C@H]2O)c(=O)[nH]1`, for which the half-inhibitory concentration (IC50) in assay [3] turned out to be 0.02 µM.
For the compound `Nc1nc2c(ncn2[C@@H]2O[C@@H]3COP(=O)(O)O[C@H]4[C@@H](O)[C@H](n5cnc6c(=O)[nH]c(N)nc65)O[C@@H]4COP(=O)(O)O[C@H]3[C@H]2O)c(=O)[nH]1`, the inhibition entry (in assay [4]; in the assay with Pseudomonas aeruginosa; in assay [7]) was “Active” in each case. Moreover, in assay [5], the inhibition entry is “inactive”. In addition, in assay [6], the affinity corresponds to a Ki of 15.4 µM. Also, the IC50 was found to be 48.9 µM in assay [1] and 7.69 µM in assay [2].
For `Nc1nc2c(ncn2[C@H]2C[C@@H]3OP(=O)(O)OC[C@H]4O[C@@H](n5cnc6c(=O)[nH]c(N)nc65)C[C@@H]4OP(=O)(O)OC[C@H]3O2)c(=O)[nH]1`, the IC50 is > 100 µM in assay [1], 13.4 µM in assay [2] and 0.02 µM in assay [3].
